# Assay results from patent publication US8314121B2, “Imidazolone derivatives, preparation thereof as drugs, pharmaceutical compositions, and use thereof as protein kinase inhibitors, in particular CDC7” (Sanofi, priority 2006, dated 2012).
row,melting point,Compound
1,340 °C,"O=C1NC(N2CCCCCC2)=N/C1=C\c1c[nH]c2ncc(C(F)(F)F)cc12 [Example 49, (5Z)-2-azepan-1-yl-5-{[5-(trifluoromethyl)-1H-pyrrolo[2,3-b]pyridin-3-yl]methylidene}-3,5-dihydro-4H-imidazol-4-one]"
2,361 °C,"O=C1NC(N2CCOCC2)=N/C1=C\c1c[nH]c2ncc(-c3ccccc3)cc12 [Example 39, (5Z)-2-morpholin-4-yl-5-[(5-phenyl-1H-pyrrolo[2,3-b]pyridin-3-yl)methylidene]-3,5-dihydro-4H-imidazol-4-one]"
3,318 to 321 °C,"CCCCC1=N/C(=C\c2c[nH]c3nc(Cl)ccc23)C(=O)N1 [Example 65, (5Z)-2-butyl-5-[(6-chloro-1H-pyrrolo[2,3-b]pyridin-3-yl)methylidene]-3,5-dihydro-4H-imidazol-4-one]"
4,289 °C,"O=C1NC(CC2CC2)=N/C1=C\c1c[nH]c2ncccc12 [Example 77, (5Z)-2-(cyclopropylmethyl)-5-(1H-pyrrolo[2,3-b]pyridin-3-ylmethylidene)-3,5-dihydro-4H-imidazol-4-one]"
5,227.5 °C,"COC1=N/C(=C\c2c[nH]c3ncc(Cl)cc23)C(=O)N1c1ccccc1 [Example 98, (5Z)-5-[1-(5-chloro-1H-pyrrolo[2,3-b]pyridin-3-yl)-methylidene]-2-methoxy-3-phenyl-3,5-dihydro-4H-imidazol-4-one]"
6,265 to 270 °C,"O=C1NC(=S)N/C1=C\c1c[nH]c2ncc(-c3ccccc3)cc12 [Example 16, (5Z)-5-[(5-phenyl-1H-pyrrolo[2,3-b]pyridin-3-yl)methylene]-2-thioxoimidazolidin-4-one]"
7,295 to 296 °C,"O=C1NC(CC2CC2)=N/C1=C\c1c[nH]c2ncc(Cl)cc12 [Example 78, (5Z)-2-(cyclopropylmethyl)-5-(5-chloro-1H-pyrrolo[2,3-b]pyridin-3-ylmethylidene)-3,5-dihydro-4H-imidazol-4-one]"
8,220 to 222 °C,"CCCCC1=N/C(=C\c2c[nH]c3ncccc23)C(=O)N1C [Example 66, (5Z)-2-butyl-3-methyl-5-(1H-pyrrolo[2,3-b]pyridin-3-ylmethylidene)-3,5-dihydro-4H-imidazol-4-one]"
9,299 °C,"O=C1NC(N2CCCCCC2)=N/C1=C\c1c[nH]c2ncc(F)cc12 [Example 36, (5Z)-2-azepan-1-yl-5-[(5-fluoro-1H-pyrrolo[2,3-b]pyridin-3-yl)methylidene]-3,5-dihydro-4H-imidazol-4-one]"
10,350 to 360 °C,"O=C1NC(N2CCCC2)=N/C1=C\c1c[nH]c2ncc(Cl)cc12 [Example 27, (5Z)-5-[(5-chloro-1H-pyrrolo[2,3-b]pyridin-3-yl)methylidene]-2-pyrrolidin-1-yl-3,5-dihydro-4H-imidazol-4-one]"
11,315 °C,"CN(Cc1ccco1)C1=N/C(=C\c2c[nH]c3ncc(Cl)cc23)C(=O)N1 [Example 94, (5Z)-5-[(5-chloro-1H-pyrrolo[2,3-b]pyridin-3-yl)methylidene]-2-[(furan-2-ylmethyl)(methyl)amino]-3,5-dihydro-4H-imidazol-4-one]"
12,> 410 °C,"CSC1=N/C(=C\c2c[nH]c3ncc(Cl)cc23)C(=O)N1 [Example 60, (5Z)-5-[(5-chloro-1H-pyrrolo[2,3-b]pyridin-3-yl)methylidene]-2-(methylsulphanyl)-3,5-dihydro-4H-imidazol-4-one]"
13,291 to 293 °C,"CC(C)SC1=N/C(=C\c2c[nH]c3ncc(Cl)cc23)C(=O)N1 [Example 63, (5Z)-5-[(5-chloro-1H-pyrrolo[2,3-b]pyridin-3-yl)methylidene]-2-((1-methyl)ethylsulphanyl)-3,5-dihydro-4H-imidazol-4-one]"
14,201 °C,"CC(C)CC1=N/C(=C\c2c[nH]c3ncccc23)C(=O)N1C [Example 75, (5Z)-3-methyl-2-(2-methylpropyl)-5-(1H-pyrrolo[2,3-b]pyridin-3-ylmethylidene)-3,5-dihydro-4H-imidazol-4-one]"
